From paper PMC1892040 (PLoS Medicine, 2007)
Where two headings read alike, the source gives them in different places.

Legend:
S. mansoni TGR [1] = target: T1, S. mansoni TGR (Schistosoma mansoni, UniProt Q962Y6); assay: Kinetic analysis of recombinant S. mansoni TGR with substrates; settings: for Specific activity, S. mansoni TGR: NADPH + substrate; for Specific activity of recombinant TGR with substrate: Trx coupled to insulin reduction, HED in Grx assay
T1 sequence (Q962Y6 1-598): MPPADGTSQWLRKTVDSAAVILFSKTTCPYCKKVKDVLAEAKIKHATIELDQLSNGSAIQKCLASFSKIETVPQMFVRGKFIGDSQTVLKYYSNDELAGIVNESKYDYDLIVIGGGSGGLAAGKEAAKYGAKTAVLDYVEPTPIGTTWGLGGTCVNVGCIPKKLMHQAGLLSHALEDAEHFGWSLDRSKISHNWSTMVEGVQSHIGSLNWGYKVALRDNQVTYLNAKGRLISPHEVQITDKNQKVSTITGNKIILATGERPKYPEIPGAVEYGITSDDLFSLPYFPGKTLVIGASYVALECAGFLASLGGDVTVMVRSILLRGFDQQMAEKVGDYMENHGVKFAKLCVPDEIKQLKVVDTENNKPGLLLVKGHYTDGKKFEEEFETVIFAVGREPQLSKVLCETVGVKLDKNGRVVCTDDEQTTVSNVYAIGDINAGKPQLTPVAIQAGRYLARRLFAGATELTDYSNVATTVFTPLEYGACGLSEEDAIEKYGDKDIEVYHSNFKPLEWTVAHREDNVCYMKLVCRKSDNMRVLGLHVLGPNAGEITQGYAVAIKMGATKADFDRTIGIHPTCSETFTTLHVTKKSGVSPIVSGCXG
Protocol: Kinetic parameters were determined using Lineweaver–Burk plots using KaleidaGraph 4 (Synergy Software, http://www.synergy.com) least squares best fit of data and varying concentrations of one substrate while maintaining the concentration of other substrates. […] All assays were done in triplicate.

S. mansoni TGR [2] = target: T1, S. mansoni TGR
Protocol: (§1) Assays were performed at 25 °C in 0.1 M potassium phosphate (pH 7.4), 10 mM EDTA using 100 μM NADPH unless otherwise stated.
(§2) Initial inhibitor screens were conducted in 200 μl volumes in 96 well plates with 50 μM inhibitor, 100 μM NADPH, and 5 nM TGR in 0.1 M potassium phosphate (pH 7.4), 10 mM EDTA with a preincubation step of 15 min. […] All assays were done in triplicate.

Human TGR = settings: cited from earlier work; for Specific activity, Human TGR: NADPH + substrate; for Km: read-out: Apparent Km, Human TGR
S. mansoni TGR [3] = target: T1, S. mansoni TGR; assay type: biochemical; design: The entire TGR ORF plus the SECIS element was subcloned into pET-24a; made in house; host or cells: Escherichia coli BL21(DE3) with pSUABC; settings: read-out: IC50 S. mansoni TGR, GSSG (GR activity)
Protocol: as §1, §2

S. mansoni TGR [4] = target: T1, S. mansoni TGR; assay: IC50, Grx activity of TGR (HED assay), 15 min preincubation; assay type: biochemical; design: The entire TGR ORF plus the SECIS element was subcloned into pET-24a; made in house; host or cells: Escherichia coli BL21(DE3) with pSUABC; settings: 8 mM HED plus 1 mM GSH, 15 min preincubation with 100 μM NADPH
Protocol: as §1, §2

Human TrxR = target: T2, Human TrxR (Homo sapiens, UniProt Q16881); settings: read-out: IC50 Human TrxR, DTNB/Trx; cited from earlier work
T2 sequence (Q16881 1-499 isoform Q16881-5): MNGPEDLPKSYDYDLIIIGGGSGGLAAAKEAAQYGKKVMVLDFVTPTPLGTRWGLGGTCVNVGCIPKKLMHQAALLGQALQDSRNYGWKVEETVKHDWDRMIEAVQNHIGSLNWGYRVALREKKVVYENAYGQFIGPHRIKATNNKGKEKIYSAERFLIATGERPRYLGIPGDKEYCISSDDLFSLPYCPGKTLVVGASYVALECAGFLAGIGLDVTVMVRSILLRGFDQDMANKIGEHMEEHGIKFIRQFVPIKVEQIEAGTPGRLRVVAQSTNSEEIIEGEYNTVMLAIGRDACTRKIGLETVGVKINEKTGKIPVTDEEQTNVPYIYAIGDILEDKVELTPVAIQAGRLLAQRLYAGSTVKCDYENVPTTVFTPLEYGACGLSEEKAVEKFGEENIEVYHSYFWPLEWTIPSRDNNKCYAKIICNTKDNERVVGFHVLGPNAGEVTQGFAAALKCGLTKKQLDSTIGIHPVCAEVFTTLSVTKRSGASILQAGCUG

S. mansoni TGR [5] = target: T1, S. mansoni TGR; assay type: biochemical; design: The entire TGR ORF plus the SECIS element was subcloned into pET-24a; made in house; host or cells: Escherichia coli BL21(DE3) with pSUABC; settings: read-out: IC50 S. mansoni TGR, DTNB (TrxR activity)
Protocol: as §1, §2

S. mansoni TGR [6] = target: T1, S. mansoni TGR; assay: biochemical; settings: read-out: Activity of Enzyme (% of Uninhibited Enzyme)
Protocol: as §1, §2

Human TrxR1 = settings: cited from earlier work; for Specific activity, Human TrxR1: NADPH + substrate, ND, no activity detected; for Km: read-out: Apparent Km, Human TrxR1
schistosomula = assay: Schistosomula survival after RNAi and/or drug treatment; assay type: cell-based, Schistosoma mansoni; settings: 2 μM praziquantel
Protocol: Cercariae were mechanically transformed to schistosomula by vortexing, and bodies were separated from tails by Percoll gradient centrifugation as described [13]. Immediately after transformation, TGR dsRNA or irrelevant dsRNA (each at 54 μg/ml) was added to ~500 schistosomula in 50 μl water followed by incubation at 37 °C for 30 min. After addition of 250 μl of RPMI-1640 medium, 300 U/ml penicillin, and 175 μg/ml streptomycin, parasites were incubated at 37 °C in 5% CO2 atmosphere for 4 d. Reduced O2 tension was obtained by filtering media and purging with 95% N2, 5% CO2 for 20 min before use. Parasites were cultured during the course of the experiment in the appropriate gaseous mix at 37 °C in a sealed modular incubator chamber (Billups-Rothenberg, http://www.brincubator.com) flushed with the same gaseous mix. On day 2 of the experiment, 50 μl of fresh media was added. Schistosomula were assessed daily for viability by microscopy. For each time point at least 1,500 parasites were scored as alive or dead in each experiment (three replicates of 500 each), and each experiment was repeated three times.
(B) Parasites were cultured in the presence of double-stranded TGR RNA (dashed lines) or of double-stranded irrelevant RNA (solid lines) in 20% O2 (♦) or 0% O2 (). […] (C) Combination of RNAi and drug treatments. Solid lines are irrelevant dsRNA treatments and dashed lines are dsTGR treatments; no additions (♦), 2 μM praziquantel () and 2 μM AF (▴). […] In each experiment for each time point at least 1,500 parasites were scored as alive or dead (three replicates of 500 parasites). The error bars represent the standard deviations of three independent experiments.

Human GR = target: T3, Human GR (Homo sapiens, UniProt P00390); settings: read-out: IC50 Human GR, GSSG; cited from earlier work
T3 sequence (P00390 44-522): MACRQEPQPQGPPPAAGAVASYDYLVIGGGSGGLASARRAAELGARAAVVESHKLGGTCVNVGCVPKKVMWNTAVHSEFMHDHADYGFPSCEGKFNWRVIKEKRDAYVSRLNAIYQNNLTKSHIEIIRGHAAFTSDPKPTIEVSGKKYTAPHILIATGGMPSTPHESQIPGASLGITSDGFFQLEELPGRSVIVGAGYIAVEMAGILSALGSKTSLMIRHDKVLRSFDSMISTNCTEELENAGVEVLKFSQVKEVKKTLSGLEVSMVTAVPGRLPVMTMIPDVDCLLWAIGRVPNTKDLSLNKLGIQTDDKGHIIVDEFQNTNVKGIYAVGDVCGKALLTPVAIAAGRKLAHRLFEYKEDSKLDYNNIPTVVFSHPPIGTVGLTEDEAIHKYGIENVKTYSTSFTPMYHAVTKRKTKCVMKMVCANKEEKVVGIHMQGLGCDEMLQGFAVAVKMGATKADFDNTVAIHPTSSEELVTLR

[7] = substrate of TGR (20 nM), 25 °C, pH 7.4, 100 μM NADPH
[8] = substrate of TGR (20 nM), 25 °C, pH 7.4, 100 μM NADPH, ± SD
[9] = read-out: Apparent Km, S. mansoni TGR
[10] = 100 μM GSSG, 15 min preincubation with 100 μM NADPH
[11] = 3 mM DTNB, 15 min preincubation with 100 μM NADPH

Work on `O=[Se]([O-])[O-].[Na+].[Na+]` [Na2SeO3, sodium selenite] yielded a kcat (S. mansoni TGR [1]; [7]) of 2.1 s⁻¹, a Km (S. mansoni TGR [1]; [8]) of 66.7 ± 6.9 µM and a Vmax (S. mansoni TGR [1]; [8]) of 2.54 ± 0.046 µM/min.

`Cc1cc2nc3cc(C)c(N)cc3[n+](-c3ccccc3)c2cc1N` [Safranin] showed an activity (S. mansoni TGR [2]) of 75%.

In the case of `OO` [Compound H2O2, H2O2], the kcat (S. mansoni TGR [1]; [7]) is reported as 9.4 s⁻¹, the Km (S. mansoni TGR [1]; [8]) is reported as 68000 µM and the Vmax (S. mansoni TGR [1]; [8]) is reported as 11.3 ± 0.46 µM/min.

In the case of `CC(C)(C)OO` [t-Butyl-OOH, tert-butyl hydroperoxide], the kcat (S. mansoni TGR [1]; [7]) is reported as 10.7 s⁻¹, the Km (S. mansoni TGR [1]; [8]) is reported as 48600 µM and the Vmax (S. mansoni TGR [1]; [8]) is reported as 12.8 ± 0.33 µM/min.

Molecule `COC1=C(OC)C(=O)C(C/C=C(\C)CC/C=C(\C)CC/C=C(\C)CC/C=C(\C)CC/C=C(\C)CC/C=C(\C)CC/C=C(\C)CC/C=C(\C)CC/C=C(\C)CCC=C(C)C)=C(C)C1=O` [Ubiquinone] has a kcat (S. mansoni TGR [1]; [7]) of less than 0.25 s⁻¹ and a Vmax (S. mansoni TGR [1]; [8]) of less than 0.3 µM/min.

In the case of `OCCSSCCO` [HED, β-hydroxyethyl disulfide], the “Apparent kcat, S. mansoni TGR” value (S. mansoni TGR [1]) is reported as 17.8 s⁻¹, the “Specific activity, S. mansoni TGR” value (S. mansoni TGR [1]) is reported as 9.9 µmol/min/mg and the “Specific activity of recombinant TGR with substrate” value (“Specific activity … with substrate” for short) (S. mansoni TGR [1]) is reported as 9.9 U/mg. It also gave a Km (S. mansoni TGR [1]; [9]) of 1870 µM, a kcat (S. mansoni TGR [1]; [7]) of 17.8 s⁻¹ and a Km (S. mansoni TGR [1]; [8]) of 1870 µM. The Vmax (S. mansoni TGR [1]; [8]) was 21.4 ± 0.33 µM/min, the “Specific activity, Human TGR” value (Human TGR) was 1.9 µmol/min/mg and the “Apparent kcat, Human TGR” value (Human TGR) was 1.2 s⁻¹. For the same molecule, the Km (Human TGR) was 45.2 µM.

For `O=C(O)CC([S-])C(=O)O.[Au+]` (stereo not drawn) [Aurothiomalate], the IC50 (S. mansoni TGR [3]; [10]) is listed as 50 nM, the IC50 (S. mansoni TGR [4]) is listed as 50 nM and the IC50 (Human TrxR) is listed as 280 nM. For the same molecule, the activity (S. mansoni TGR [2]) was 0% and the IC50 (S. mansoni TGR [5]; [11]) was 90 nM.

`O=C(O)CCCC[C@@H]1CCSS1` (racemic) [Lipoic acid] gave a kcat (S. mansoni TGR [1]; [7]) of 1.7 s⁻¹, a Km (S. mansoni TGR [1]; [8]) of 2610 µM and a Vmax (S. mansoni TGR [1]; [8]) of 2.03 ± 0.135 µM/min.

For `CN(C)c1ccc2nc3ccc(=[N+](C)C)cc-3sc2c1` [Methylene blue], the activity at 50 µM (S. mansoni TGR [6]) was 100%.

`O=C1OC(C(O)CO)C(=O)C1=O` (stereo not drawn) [DHAA, dehydroascorbic acid] gave a kcat (S. mansoni TGR [1]; [7]) of less than 0.25 s⁻¹ and a Vmax (S. mansoni TGR [1]; [8]) of less than 0.3 µM/min.

In the case of `CN(C)CCC(=O)c1ccccc1` [Compound 3-DAP], the IC50 (S. mansoni TGR [3]; [10]) is reported as 7000 nM and the IC50 (S. mansoni TGR [5]; [11]) is reported as 500 nM.

In the case of `O=C(O)c1cc(SSc2ccc([N+](=O)[O-])c(C(=O)O)c2)ccc1[N+](=O)[O-]` [DTNB, 5,5′-dithiobis(2-nitrobenzoic acid)], the “Specific activity, Human TrxR1” value (Human TrxR1) is listed as 25 µmol/min/mg, the “Apparent kcat, Human TrxR1” value (Human TrxR1) is listed as 86 s⁻¹ and the Km (Human TrxR1) is listed as 212 µM. The “Specific activity, S. mansoni TGR” value (S. mansoni TGR [1]) was 10.2 µmol/min/mg, the “Specific activity … with substrate” value (S. mansoni TGR [1]) was 10.2 U/mg and the kcat (S. mansoni TGR [1]; [7]) was 16 s⁻¹. The Km (S. mansoni TGR [1]; [8]) was 114 ± 9 µM, the Vmax (S. mansoni TGR [1]; [8]) was 19.2 ± 1.6 µM/min and the “Specific activity, Human TGR” value (Human TGR) was 3.1 µmol/min/mg. For the same molecule, the “Apparent kcat, Human TGR” value (Human TGR) was 6.5 s⁻¹ and the Km (Human TGR) was 14.7 µM.

`CC1=CC(=O)c2c(O)cccc2C1=O` [Plumbagin] showed an activity at 50 µM (S. mansoni TGR [6]) of 15%.

`O=C1C=CC(=O)c2ccccc21` [Compound M5] gave an activity (S. mansoni TGR [2]) of 37%.

In the case of `O=C1C=CC(=O)c2c(O)ccc(O)c21` [Naphthazarin], the IC50 (Human TrxR) is listed as 650 nM.

With `O=C(C1CCCCC1)N1CC(=O)N2CCc3ccccc3C2C1` (stereo not drawn) [Praziquantel] the “Inhibition of TGR, in words” value (S. mansoni TGR [2]) was “no inhibitory activity”, the “Effect on schistosomula survival alone or in combination with RNAi” value (schistosomula) was “no effect” and the activity at 50 µM (S. mansoni TGR [6]) was 100%.

`CC1=CC(=O)c2ccccc2C1=O` [Menadione] gave an activity at 50 µM (S. mansoni TGR [6]) of 18%.

For `OC[C@H]1O[C@H]([S-])[C@H](O)[C@@H](O)[C@@H]1O.[Au+]` [Aurothioglucose], the IC50 (S. mansoni TGR [3]) is given as 3000 nM, the IC50 (S. mansoni TGR [4]) is given as 400 nM and the IC50 (Human GR) is given as greater than 100000 nM. The IC50 (Human TrxR) was 65 nM, the “Activity of Enzyme (% of Uninhibited Enzyme)” value (S. mansoni TGR [2]) was 0% and the IC50 (S. mansoni TGR [5]) was 70 nM.

B1: Trx: 12 kDa protein thioredoxin, substrate of TrxR and TGR enzymes (protein, UniProt P10599 2-105, looked up)
Thioredoxin: VKQIESKTAFQEALDAAGDKLVVVDFSATWCGPCKMIKPFFHSLSEKYSNVIFLEVDVDDCQDVASECEVKCMPTFQFFKKGQKVGEFSGANKEKLEATINELV
For B1, the “Specific activity, Human TrxR1” value (Human TrxR1) is listed as 5.9 µmol/min/mg, the “Apparent kcat, Human TrxR1” value (Human TrxR1) is listed as 9.8 s⁻¹ and the Km (Human TrxR1) is listed as 4.73 µM. For the same molecule, the “Apparent kcat, S. mansoni TGR” value (S. mansoni TGR [1]) was 30 s⁻¹, the “Specific activity, S. mansoni TGR” value (S. mansoni TGR [1]) was 2.2 µmol/min/mg and the “Specific activity … with substrate” value (S. mansoni TGR [1]) was 2.2 U/mg. For the same molecule, the Km (S. mansoni TGR [1]; [9]) was 6.37 µM, the “Specific activity, Human TGR” value (Human TGR) was 4.2 µmol/min/mg and the “Apparent kcat, Human TGR” value (Human TGR) was 5.7 s⁻¹. For the same molecule, the Km (Human TGR) was 3 µM.
